Assay results from patent US9827316B2, “Cardiovascular disease treatment and prevention” (priority 2013, dated 2017).

Legend:
[1] = Nitric oxide gas bubbled through carrier, change in weight; format: physicochemical; settings: NO bubbled 40 hr, 25 ° C.
Procedure: This example illustrates one technique for preparing a composition in accordance with one embodiment of the invention. An accurate amount of a carrier (HNC 167-62) (see below) was introduced into a system. The carrier weight used in these experiments was approximately 250 g and the vessel size was 500 ml. The vessel was equipped with a mechanical stirrer, gas inlet, and gas outlet and was previously purged with argon for about an hour. The temperature of the carrier was kept at about 25-30° C. NO gas regulated at 5 psi (1 psi is about 6,900 Pa) and was then introduced at a controlled rate of about 1 bubble/s with continuous stirring. […] After 6 hours, the weight of the carrier had increased by 0.15%, by 12 hours by 0.25%, and by 24 hours by 0.56%. These increases in weight were believed to be significant considering the relative small molecular weight of NO versus the carrier. […] The carrier also can solidify upon cooling if the carrier is initially a solid at lower temperature.
Each carrier was taken in a 500 mL three necked flask equipped with a mechanical stirrer, gas inlet and a gas outlet. The system was purged with argon for one hour at room temperature (25° C.). Then nitric oxide gas was bubbled into the system. Then, nitric oxide gas was bubbled through carrier for stipulated amount of time. The changes in weight and color were noted. […]

[2] = Laser Doppler capillary blood flow in humans, 10,000 ppm NO in closed chamber (Example 5); format: in vivo, human; settings: positive control, 1/10% in alcohol applied to skin
Excerpt: The formulation used in these studies contained nitric oxide dispersed in a lipid matrix. […] Nitric oxide is a very rapid acting molecule, and these studies used a system that employed laser Doppler with a covered chamber. The formulation was placed into the chamber and then attached to the skin by an adhesive layer on the covering. This provided a stable measuring device as determined by multiple normal evaluations of the capillary blood flow without treatment of nitric oxide.
A known positive control, methyl nicotinate, was applied to the skin at a concentration of 1/10% in alcohol. […] The vascular dynamics are such that when the blood vessels dilate physical parameters follow Bernoulli's law. This states that as one increases the diameter of a tube containing a liquid to flow will increase but the pressure and the speed of the liquid will decrease. The laser Doppler device accurately measured these parameters.
The test product was labeled as 10,000 ppm NO (nitric oxide). The study participants had 100 mg of the test product applied in a closed Hilltop chamber on the forearm. […]
A Moor Instruments DRT4 Laser Doppler Blood Flow Monitor (Devon, England) was used in these studies. The laser Doppler technique measured blood flow in the microcapillaries of the skin that are close to the skin surface and the blood flow in underlying arterioles and venules that help to regulate skin temperature. […]

[3] = Laser Doppler circulation in five human subjects (Example 8); format: in vivo; settings: positive control formulation, 0.1%
Excerpt: This example illustrates delivery of nitric oxide formulations to five human subjects, using procedures and formulations similar to those discussed in Example 5. Each person served as their own control for the testing. A Moor Instruments Laser Doppler was used to determine circulation. […] The formulations used produce positive, almost immediate results when applied to the skin which, in these studies, was manifested by vasodilatation of the cutaneous vascular system.
For each subject, the following creams were applied: a negative control formulation (containing no NO), 0.010 gram of a 10,000 ppm NO formulation, 0.020 gram of a 10,000 ppm NO formulation, and a positive control formulation containing 0.1% methyl nicotinate. The formulations were prepared using procedures similar to those discussed in Example 1.

| Structure (SMILES) | % Wt. gain [1] | laser Doppler response of skin blood flow [2] | vasodilatation [3] |
| --- | --- | --- | --- |
| OCCCO [1,3-Propanediol, 1,3-propanediol] | 0.09% |  |  |
| COC(=O)c1cccnc1 [methyl nicotinate] |  | rapid response typical of the vasodilator | vasodilatation was observed |
